Data from patent US9650339B2, “Inhibitors of histone demethylases” (Gilead Sciences, Inc., priority 2013, dated 2017).
Each block holds one compound with its values, some of them ahead of it.

Experiments:
[1] = tested on: SU DHL6; assay: Cell proliferation assay SU DHL6; format: cell-based; settings: Homo sapiens, SU-DHL-6; SU DHL6, B cell lymphoma; method of Example 5
Experimental: (§1) MCF7 cells were seeded in multi well plates at a density optimized to give approximately 90% confluent cells at the time of harvest. Cells were incubated for 24 hours before addition of compound. Compounds were diluted in complete medium and added to the plates in duplicates. The final concentration of DMSO was maximum 0.5%. Complete medium used was DMEM with GlutaMAX containing 10% FBS and pen/strep.
(§2) 120 hours after addition of compounds, the plates were harvested and analyzed by ATPlite 1 Step (Perkin Elmer, cat no 6016739) according to the manufactures recommendation.
(§3) The assays were performed by the method of Example 5 by seeding the relevant cell line at a density optimized to give approximately 90% confluent cells at the time of harvest.

[2] = tested on: SK-MEL-28; assay: Cell proliferation assay SK-MEL-28; format: cell-based; settings: Homo sapiens; SK-MEL-28, Melanoma; method of Example 5
Experimental: as §1, §2, §3

[3] = tested on: AMO1; assay: Cell proliferation assay AMO1; format: cell-based; settings: Homo sapiens; AMO1, Plasmacytoma; method of Example 5
Experimental: as §1, §2, §3

[4] = tested on: OVCAR-3; assay: Cell proliferation assay OVCAR-3; format: cell-based; settings: Homo sapiens; OVCAR-3, Ovary; method of Example 5
Experimental: as §1, §2, §3

[5] = tested on: K562; assay: Cell proliferation assay K562; format: cell-based; settings: Homo sapiens; K562, Chronic myelogenous leukemia; method of Example 5
Experimental: as §1, §2, §3

[6] = tested on: EJM; assay: Cell proliferation assay EJM; format: cell-based; settings: Homo sapiens, Myeloma, method of Example 5
Experimental: as §1, §2, §3

[7] = tested on: MM1S; assay: Cell proliferation assay MM1S; format: cell-based; settings: Homo sapiens, MM1.S, Myeloma, method of Example 5
Experimental: as §1, §2, §3

[8] = tested on: HCC1954; assay: Cell proliferation assay HCC1954; format: cell-based; settings: Homo sapiens; HCC1954, Breast dutal carcinoma; method of Example 5
Experimental: as §1, §2, §3

[9] = tested on: Jurkat Clone E6-1; assay: Cell proliferation assay Jurkat Clone E6-1; format: cell-based; settings: Homo sapiens; Jurkat Clone E6-1, Acute T cell lymphoma; method of Example 5
Experimental: as §1, §2, §3

[10] = tested on: L363; assay: Cell proliferation assay L363; format: cell-based; settings: Homo sapiens, L-363; L363, Plasma cell leukemia; method of Example 5
Experimental: as §1, §2, §3

[11] = tested on: A375; assay: Cell proliferation assay A375; format: cell-based; settings: Homo sapiens, A-375; A375, Melanoma; method of Example 5
Experimental: as §1, §2, §3

[12] = tested on: KMS 12 BM; assay: Cell proliferation assay KMS 12 BM; format: cell-based; settings: Homo sapiens, Myeloma, method of Example 5
Experimental: as §1, §2, §3

[13] = tested on: L1236; assay: Cell proliferation assay L1236; format: cell-based; settings: Homo sapiens, L-1236; L1236, Hodgkin's lymphoma; method of Example 5
Experimental: as §1, §2, §3

[14] = tested on: U2OS; assay: Cell proliferation assay U2OS; format: cell-based; settings: Homo sapiens, Osteosarcoma, method of Example 5
Experimental: as §1, §2, §3

[15] = tested on: SK MM2; assay: Cell proliferation assay SK MM2; format: cell-based; settings: Homo sapiens, SK-MM-2; SK MM2, Plasma cell leukemia; method of Example 5
Experimental: as §1, §2, §3

[16] = tested on: UH01; assay: Cell proliferation assay UH01; format: cell-based; settings: Homo sapiens; UH01, Hodgkin's lymphoma; method of Example 5
Experimental: as §1, §2, §3

[17] = tested on: U266; assay: Cell proliferation assay U266; format: cell-based; settings: Homo sapiens, U-266; U266, Myeloma; method of Example 5
Experimental: as §1, §2, §3

[18] = tested on: JJN3; assay: Cell proliferation assay JJN3; format: cell-based; settings: Homo sapiens, JJN-3; JJN3, Plasma cell leukemia; method of Example 5
Experimental: as §1, §2, §3

[19] = tested on: LP1; assay: Cell proliferation assay LP1; format: cell-based; settings: Homo sapiens, LP-1; LP1, Myeloma; method of Example 5
Experimental: as §1, §2, §3

[20] = tested on: OPM-2 subcutaneous mouse xenograft model of multiple myeloma; assay: Inhibition of tumor growth in mouse xenograft model; format: in vivo, NOD/SCID mice (Mus Musculus)
Excerpt: Briefly, NOD/SCID mice γ-irradiated with ^60Co (200 rad) (12 animals/group) were inoculated subcutaneously with 8×10^6 OPM-2 cells assisted with Matrigel. Dosing according to the table below started when tumors reached an average size of ˜100 mm^3 (day 15). Dosing continued until the average size of tumors in the vehicle group reached ˜2000 mm^3 (day 31).
Animals were 7 weeks old female NOD/SCID mice (Mus Musculus), supplied by Beijing HFK Bio-Technology Co. Ltd. (Beijing, china). Body weight was approx. 16-23 g. Before commencement of treatment, all animals were weighed and tumor volumes were measured, and mice were assigned into groups using randomized block design based upon their tumor volumes.
OPM-2 tumor cells were maintained in vitro in RPMI1640 medium supplemented with 20% fetal bovine serum at 37° C. in an atmosphere of 5% CO2 in air. The tumor cells were routinely subcultured twice weekly. The cells growing in an exponential growth phase were harvested and counted for tumor inoculation.
Tumor sizes were measured three times weekly in two dimensions using a caliper, and the volume was expressed in mm^3 using the formula: V=0.5 a×b^2 where a and b were the long and short diameters of the tumor, respectively.

[21] = tested on: MM1R; assay: Cell proliferation assay MM1R; format: cell-based; settings: Homo sapiens, MM.1R, Myeloma, method of Example 5
Experimental: as §1, §2, §3

[22] = tested on: MOLP8; assay: Cell proliferation assay MOLP8; format: cell-based; settings: Homo sapiens, MOLP-8; MOLP8, Myeloma; method of Example 5
Experimental: as §1, §2, §3

EC50 [17]: > 2500 nM
SMILES: CCN(CC)CCCCNCc1cc(/C=N/CCO)ccn1 [Compound 61, 2-[{[2-({[4-(diethylamino)-butyl]amino}-methyl)pyridin-4-yl]methylidene}-amino]ethan-1-ol]
EC50 [15]: 250 to 2500 nM
EC50 [16]: > 2500 nM
EC50 [6]: > 2500 nM
EC50 [18]: > 2500 nM
EC50 [19]: > 2500 nM
EC50 [10]: > 2500 nM
Tumor Volume ([20]; BID × 14 i.p. 1 mg/kg, day 15 after inoculation (start of dosing)): 101 ± 12 mm^3
Tumor Volume ([20]; BID × 14 i.p. 1 mg/kg, day 17 after inoculation): 249 ± 32 mm^3
Tumor Volume ([20]; BID × 14 i.p. 1 mg/kg, day 19 after inoculation): 320 ± 45 mm^3
Tumor Volume ([20]; BID × 14 i.p. 1 mg/kg, day 21 after inoculation): 577 ± 85 mm^3
Tumor Volume ([20]; BID × 14 i.p. 1 mg/kg, day 24 after inoculation): 951 ± 124 mm^3
Tumor Volume ([20]; BID × 14 i.p. 1 mg/kg, day 26 after inoculation): 1259 ± 169 mm^3
Tumor Volume ([20]; BID × 14 i.p. 1 mg/kg, day 28 after inoculation): 1800 ± 202 mm^3
Tumor Volume ([20]; BID × 14 i.p. 1 mg/kg, day 31 after inoculation): 2864 ± 334 mm^3
Tumor Volume ([20]; BID × 14 i.p. 10 mg/kg, day 15 after inoculation (start of dosing)): 101 ± 11 mm^3
Tumor Volume ([20]; BID × 14 i.p. 10 mg/kg, day 17 after inoculation): 198 ± 28 mm^3
Tumor Volume ([20]; BID × 14 i.p. 10 mg/kg, day 19 after inoculation): 276 ± 44 mm^3
Tumor Volume ([20]; BID × 14 i.p. 10 mg/kg, day 21 after inoculation): 519 ± 67 mm^3
Tumor Volume ([20]; BID × 14 i.p. 10 mg/kg, day 24 after inoculation): 694 ± 92 mm^3
Tumor Volume ([20]; BID × 14 i.p. 10 mg/kg, day 26 after inoculation): 928 ± 136 mm^3
Tumor Volume ([20]; BID × 14 i.p. 10 mg/kg, day 28 after inoculation): 1289 ± 178 mm^3
Tumor Volume ([20]; BID × 14 i.p. 10 mg/kg, day 31 after inoculation): 1996 ± 302 mm^3
Tumor Volume ([20]; BID × 14 i.p. 20 mg/kg, day 15 after inoculation (start of dosing)): 101 ± 12 mm^3
Tumor Volume ([20]; BID × 14 i.p. 20 mg/kg, day 17 after inoculation): 188 ± 25 mm^3
Tumor Volume ([20]; BID × 14 i.p. 20 mg/kg, day 19 after inoculation): 292 ± 50 mm^3
Tumor Volume ([20]; BID × 14 i.p. 20 mg/kg, day 21 after inoculation): 440 ± 77 mm^3
Tumor Volume ([20]; BID × 14 i.p. 20 mg/kg, day 24 after inoculation): 766 ± 143 mm^3
Tumor Volume ([20]; BID × 14 i.p. 20 mg/kg, day 26 after inoculation): 1029 ± 196 mm^3
Tumor Volume ([20]; BID × 14 i.p. 20 mg/kg, day 28 after inoculation): 1298 ± 236 mm^3
Tumor Volume ([20]; BID × 14 i.p. 20 mg/kg, day 31 after inoculation): 1573 ± 261 mm^3

EC50 [14]: > 2500 nM
SMILES: CCN(CC)CCCCNCc1cc(C=O)ccn1 [Compound 107, 2-({[4-(diethylamino)-butyl]amino}-methyl)pyridine-4-carbaldehyde]

The remaining lines, values behind:

SMILES: CCN(CCN(C)C)C(=O)CNCc1cc(CNC(=O)C(F)(F)F)ccn1 [Compound 25, N-[(2-{[({[2-(dimethylamino)ethyl]-(ethyl)carbamoyl}-methyl)amino]methyl}-pyrtdin-4-yl)methyl]-2,2,2-trifluoroacetamide]
EC50 [1]: < 250 nM
EC50 [2]: > 2500 nM
EC50 [3]: < 250 nM
EC50 [4]: > 2500 nM
EC50 [5]: 250 to 2500 nM
EC50 [6]: > 2500 nM
EC50 [7]: < 250 nM
EC50 [8]: > 2500 nM
EC50 [9]: > 2500 nM
EC50 [10]: > 2500 nM
EC50 [11]: 250 to 2500 nM
EC50 [12]: < 250 nM
EC50 [13]: > 2500 nM

SMILES: C(=N/C1CC1)/c1ccnc(CNCCCN2CCCC2)c1 [Compound 42, N-{[2-({[3-(pyrrolidin-1-yl)propyl]amino}-methyl)pyridin-4-yl]methylidene}-cyclopropanamine]
EC50 [14]: > 2500 nM
EC50 [13]: > 2500 nM

SMILES: CCN(CCN(C)C)C(=O)CNCc1cc(C2OCC(Cc3ccccc3)CN2C(=O)C(F)(F)F)ccn1 (stereo not shown) [Compound 90, 2-[({4-[5-benzyl-3-(trifluoroacetyl)-1,3-oxazinan-2-yl]pyridin-2-yl}methyl)amino]-N-[2-(dimethylamino)-ethyl]-N-ethylacetamide]
EC50 [21]: < 250 nM
EC50 [22]: < 250 nM
